Here are results for two molecules from patent US20050042354A1, “Antiradicals and fat compositions, foods, drinks, drugs or feeds containing the antiradicals” (priority 2001, published 2005).

The nature of this assay: Trolox relative activity in ORAC method (antiradical activity in serum). The note with it: for Trolox relative activity: ORAC method, human blood serum, 60-μM 4-vinyl-2,6-dimethoxyphenol, 300-μM α-tocopherol. It is filed as biochemical, human. As for the experimental part: 2) Trolox Relative Activity in ORAC Method
10 μl of a test substance in a designated concentration, or
6-hydroxy-2,5,7,8-tetramethylchroman-2-carboxylic acid (Trolox) solution is added to 10 μl of 200-fold diluted solution of human blood serum. Then, 180 μl of 3.73-mg/l β-phycoerythrin (β-PE) is added, and the mixture is preheated at 37° C. for 1 min. 10 μl of 80-mM 2,2′-azobis(2-amidinopropane)-dihydrochloride (AAPH) is then added, and the reaction is started at 37° C. For the dilution of the serum or reagents added, phosphate buffer (75 mM, pH 7.0) is used. As a control, this phosphate buffer is used in place of the test substance. Fluorescence intensity (Ex: 540 nm, Em: 565 nm) of the reactant is measured every 2 min after the start of the reaction, and the relationship between the fluorescence intensity (y-axis) and the time x-axis) is plotted on a graph. The area (S) enclosed by the obtained curve, x and y axes is calculated for the test substance, Trolox and the control. The antiradical activity of the test substance in the serum is calculated as a Trolox relative activity using the following equation. Trolox relative activity=(Test substance's S−Control's S)/(Trolox's S−Control's S)×(Trolox's concentration/Test substance's concentration) In this testing system, AAPH generates peroxyradicals, and the peroxyradicals oxidize the substrate β-PE, which results in a reaction to eliminate fluorescence of β-PE. Trolox is a derivative of water-soluble vitamin E, and is used as a standard substance of the antioxidation reaction in this testing system. These reaction substrate and standard substance are those used in an oxygen radical absorbance capacity (ORAC) method. The ORAC method is widely used to obtain antioxydation and antiradical activities of biological samples and natural materials as values relative to those of a standard substance, in an easy and accurate manner. (5) Rancimat Test

`C=Cc1cc(OC)c(O)c(OC)c1` [Example 7, 4-vinyl-2,6-dimethoxyphenol] had a Trolox relative activity of 0.58. Also, the “Trolox relative activity in serum relative to α-tocopherol” value (in serum) is “approximately 7 folds”.
In turn, `Cc1c(C)c2c(c(C)c1O)CC[C@@](C)(CCC[C@H](C)CCC[C@H](C)CCCC(C)C)O2` [compound 1, α-tocopherol, reference compound] gave a Trolox relative activity of 0.08.
